Experimental data from ChEMBL document CHEMBL5126592, “Design, synthesis and activity against drug-resistant bacteria evaluation of C-20, C-23 modified 5-O-mycaminosyltylonolide derivatives” (Eur J Med Chem, 2022).
In brackets after ≈: the same amount, converted by molar mass.

Key:
Format in all cases: functional
Conditions in all cases: time 16-20 hrs
Staphylococcus aureus = assay: Antibacterial activity against Staphylococcus aureus ATCC 25923 incubated for 16 to 20 hrs by broth microdilution method
Escherichia coli = assay: Antibacterial activity against Escherichia coli ATCC 25922 incubated for 16 to 20 hrs by broth microdilution method
Cronobacter sakazakii = assay: Antibacterial activity against Cronobacter sakazakii ATCC 29544 incubated for 16 to 20 hrs by broth microdilution method
Klebsiella pneumoniae = assay: Antibacterial activity against Klebsiella pneumoniae ATCC 13883 incubated for 16 to 20 hrs by broth microdilution method

SMILES	MIC (Staphylococcus aureus)	MIC (Escherichia coli)	MIC (Cronobacter sakazakii)	MIC (Klebsiella pneumoniae)
CC[C@H]1OC(=O)C[C@@H](O)[C@H](C)[C@@H](O[C@@H]2O[C@H](C)[C@@H](O)[C@H](N(C)C)[C@H]2O)[C@@H](CCN(Cc2ccc(N(C)C)cc2)Cc2cn(-c3cnc4ccccc4c3)nn2)C[C@@H](C)C(=O)/C=C/C(C)=C/[C@@H]1CN1CC(C)CC(C)C1 (stereo not given in full)	2 µg/mL (≈ 1.93 µM)	8 µg/mL (≈ 7.73 µM)	32 µg/mL (≈ 30.9 µM)	32 µg/mL (≈ 30.9 µM)
CC[C@H]1OC(=O)C[C@@H](O)[C@H](C)[C@@H](O[C@@H]2O[C@H](C)[C@@H](O)[C@H](N(C)C)[C@H]2O)[C@@H](CCN(Cc2cn(-c3cnc4ccccc4c3)nn2)Cc2cncs2)C[C@@H](C)C(=O)/C=C/C(C)=C/[C@@H]1CO	0.5 µg/mL (≈ 0.553 µM)	32 µg/mL (≈ 35.4 µM)	32 µg/mL (≈ 35.4 µM)	32 µg/mL (≈ 35.4 µM)
CC[C@H]1OC(=O)C[C@@H](O)[C@H](C)[C@@H](O[C@@H]2O[C@H](C)[C@@H](O)[C@H](N(C)C)[C@H]2O)[C@@H](CCN(Cc2ccc(C(F)(F)F)cc2)Cc2cn(-c3cnc4ccccc4c3)nn2)C[C@@H](C)C(=O)/C=C/C(C)=C/[C@@H]1CI	4 µg/mL (≈ 3.72 µM)	32 µg/mL (≈ 29.8 µM)	32 µg/mL (≈ 29.8 µM)	32 µg/mL (≈ 29.8 µM)
CCCN(CCC)C[C@H]1/C=C(C)/C=C/C(=O)[C@H](C)C[C@H](CCN(C)Cc2cn(-c3cnc4ccccc4c3)nn2)[C@H](O[C@@H]2O[C@H](C)[C@@H](O)[C@H](N(C)C)[C@H]2O)[C@@H](C)[C@H](O)CC(=O)O[C@@H]1CC	0.25 µg/mL (≈ 0.276 µM)	4 µg/mL (≈ 4.42 µM)	8 µg/mL (≈ 8.85 µM)	4 µg/mL (≈ 4.42 µM)
CC[C@H]1OC(=O)C[C@@H](O)[C@H](C)[C@@H](O[C@@H]2O[C@H](C)[C@@H](O)[C@H](N(C)C)[C@H]2O)[C@@H](CCN(Cc2ccc(C(F)(F)F)cc2)Cc2cn(-c3cnc4ccccc4c3)nn2)C[C@@H](C)C(=O)/C=C/C(C)=C/[C@@H]1CO	0.25 µg/mL (≈ 0.259 µM)	8 µg/mL (≈ 8.29 µM)	16 µg/mL (≈ 16.6 µM)	32 µg/mL (≈ 33.2 µM)
CC[C@H]1OC(=O)C[C@@H](O)[C@H](C)[C@@H](O[C@@H]2O[C@H](C)[C@@H](O)[C@H](N(C)C)[C@H]2O)[C@@H](CCN(Cc2ccc(Br)cc2)Cc2cn(-c3cnc4ccccc4c3)nn2)C[C@@H](C)C(=O)/C=C/C(C)=C/[C@@H]1CO	0.125 µg/mL (≈ 0.128 µM)	8 µg/mL (≈ 8.2 µM)	32 µg/mL (≈ 32.8 µM)	32 µg/mL (≈ 32.8 µM)
CC[C@H]1OC(=O)C[C@@H](O)[C@H](C)[C@@H](O[C@@H]2O[C@H](C)[C@@H](O)[C@H](N(C)C)[C@H]2O)[C@@H](CCN(Cc2ccc(C(C)C)cc2)Cc2cn(-c3cnc4ccccc4c3)nn2)C[C@@H](C)C(=O)/C=C/C(C)=C/[C@@H]1CO	0.5 µg/mL (≈ 0.532 µM)	16 µg/mL (≈ 17 µM)	32 µg/mL (≈ 34.1 µM)	32 µg/mL (≈ 34.1 µM)
CC[C@H]1OC(=O)C[C@@H](O)[C@H](C)[C@@H](O[C@@H]2O[C@H](C)[C@@H](O)[C@H](N(C)C)[C@H]2O)[C@@H](CCN(Cc2ccc(OC)cc2)Cc2cn(-c3cnc4ccccc4c3)nn2)C[C@@H](C)C(=O)/C=C/C(C)=C/[C@@H]1CO	0.25 µg/mL (≈ 0.27 µM)	8 µg/mL (≈ 8.63 µM)	32 µg/mL (≈ 34.5 µM)	16 µg/mL (≈ 17.3 µM)
CC[C@H]1OC(=O)C[C@@H](O)[C@H](C)[C@@H](O[C@@H]2O[C@H](C)[C@@H](O)[C@H](N(C)C)[C@H]2O)[C@@H](CCN(Cc2ccccc2)Cc2cn(-c3cnc4ccccc4c3)nn2)C[C@@H](C)C(=O)/C=C/C(C)=C/[C@@H]1CN1CCCCC1	1 µg/mL (≈ 1.04 µM)	8 µg/mL (≈ 8.3 µM)	8 µg/mL (≈ 8.3 µM)	8 µg/mL (≈ 8.3 µM)
CC[C@H]1OC(=O)C[C@@H](O)[C@H](C)[C@@H](O[C@@H]2O[C@H](C)[C@@H](O)[C@H](N(C)C)[C@H]2O)[C@@H](CCN(Cc2cn(-c3cnc4ccccc4c3)nn2)Cc2ccco2)C[C@@H](C)C(=O)/C=C/C(C)=C/[C@@H]1CI	2 µg/mL (≈ 2.01 µM)	32 µg/mL (≈ 32.1 µM)	16 µg/mL (≈ 16 µM)	16 µg/mL (≈ 16 µM)
CC[C@H]1OC(=O)C[C@@H](O)[C@H](C)[C@@H](O[C@@H]2O[C@H](C)[C@@H](O)[C@H](N(C)C)[C@H]2O)[C@@H](CCN(Cc2ccccc2)Cc2cn(-c3cnc4ccccc4c3)nn2)C[C@@H](C)C(=O)/C=C/C(C)=C/[C@@H]1CN1CCCCCCC1	1 µg/mL (≈ 1.01 µM)	8 µg/mL (≈ 8.06 µM)	16 µg/mL (≈ 16.1 µM)	8 µg/mL (≈ 8.06 µM)
CC[C@H]1OC(=O)C[C@@H](O)[C@H](C)[C@@H](O[C@@H]2O[C@H](C)[C@@H](O)[C@H](N(C)C)[C@H]2O)[C@@H](CCN(Cc2ccc(C(F)(F)F)cc2)Cc2cn(-c3cnc4ccccc4c3)nn2)C[C@@H](C)C(=O)/C=C/C(C)=C/[C@@H]1CN1CCCCCC1	1 µg/mL (≈ 0.956 µM)	4 µg/mL (≈ 3.82 µM)	8 µg/mL (≈ 7.65 µM)	4 µg/mL (≈ 3.82 µM)
CC[C@H]1OC(=O)C[C@@H](O)[C@H](C)[C@@H](O[C@@H]2O[C@H](C)[C@@H](O)[C@H](N(C)C)[C@H]2O)[C@@H](CCN(Cc2ccc(C)cc2)Cc2cn(-c3cnc4ccccc4c3)nn2)C[C@@H](C)C(=O)/C=C/C(C)=C/[C@@H]1CO	0.5 µg/mL (≈ 0.549 µM)	16 µg/mL (≈ 17.6 µM)	16 µg/mL (≈ 17.6 µM)	16 µg/mL (≈ 17.6 µM)
CC[C@H]1OC(=O)C[C@@H](O)[C@H](C)[C@@H](O[C@@H]2O[C@H](C)[C@@H](O)[C@H](N(C)C)[C@H]2O)[C@@H](CCN(Cc2cn(-c3cnc4ccccc4c3)nn2)Cc2nccs2)C[C@@H](C)C(=O)/C=C/C(C)=C/[C@@H]1CO	0.5 µg/mL (≈ 0.553 µM)	32 µg/mL (≈ 35.4 µM)	32 µg/mL (≈ 35.4 µM)	32 µg/mL (≈ 35.4 µM)
CC[C@H]1OC(=O)C[C@@H](O)[C@H](C)[C@@H](O[C@@H]2O[C@H](C)[C@@H](O)[C@H](N(C)C)[C@H]2O)[C@@H](CCN(Cc2cn(-c3cnc4ccccc4c3)nn2)Cc2cccs2)C[C@@H](C)C(=O)/C=C/C(C)=C/[C@@H]1CO	0.125 µg/mL (≈ 0.138 µM)	16 µg/mL (≈ 17.7 µM)	32 µg/mL (≈ 35.4 µM)	16 µg/mL (≈ 17.7 µM)
CC[C@H]1OC(=O)C[C@@H](O)[C@H](C)[C@@H](O[C@@H]2O[C@H](C)[C@@H](O)[C@H](N(C)C)[C@H]2O)[C@@H](CCN(Cc2ccc(NC(C)=O)cc2)Cc2cn(-c3cnc4ccccc4c3)nn2)C[C@@H](C)C(=O)/C=C/C(C)=C/[C@@H]1CO	2 µg/mL (≈ 2.1 µM)	32 µg/mL (≈ 33.5 µM)	32 µg/mL (≈ 33.5 µM)	32 µg/mL (≈ 33.5 µM)
CC[C@H]1OC(=O)C[C@@H](O)[C@H](C)[C@@H](O[C@@H]2O[C@H](C)[C@@H](O)[C@H](N(C)C)[C@H]2O)[C@@H](CCN(Cc2ccc(OC)cc2)Cc2cn(-c3cnc4ccccc4c3)nn2)C[C@@H](C)C(=O)/C=C/C(C)=C/[C@@H]1CI	2 µg/mL (≈ 1.93 µM)	16 µg/mL (≈ 15.4 µM)	32 µg/mL (≈ 30.9 µM)	32 µg/mL (≈ 30.9 µM)
CC[C@H]1OC(=O)C[C@@H](O)[C@H](C)[C@@H](O[C@@H]2O[C@H](C)[C@@H](O)[C@H](N(C)C)[C@H]2O)[C@@H](CCN(Cc2ccccc2)Cc2cn(-c3cnc4ccccc4c3)nn2)C[C@@H](C)C(=O)/C=C/C(C)=C/[C@@H]1CN1CCC(O)CC1	2 µg/mL (≈ 2.04 µM)	16 µg/mL (≈ 16.3 µM)	16 µg/mL (≈ 16.3 µM)	16 µg/mL (≈ 16.3 µM)
CC[C@H]1OC(=O)C[C@@H](O)[C@H](C)[C@@H](O[C@@H]2O[C@H](C)[C@@H](O)[C@H](N(C)C)[C@H]2O)[C@@H](CCN(C)Cc2cn(-c3cnc4ccccc4c3)nn2)C[C@@H](C)C(=O)/C=C/C(C)=C/[C@@H]1CI	2 µg/mL (≈ 2.15 µM)	16 µg/mL (≈ 17.2 µM)	32 µg/mL (≈ 34.4 µM)	32 µg/mL (≈ 34.4 µM)
CC[C@H]1OC(=O)C[C@@H](O)[C@H](C)[C@@H](O[C@@H]2O[C@H](C)[C@@H](O)[C@H](N(C)C)[C@H]2O)[C@@H](CCN(Cc2ccc(OC)cc2)Cc2cn(-c3cnc4ccccc4c3)nn2)C[C@@H](C)C(=O)/C=C/C(C)=C/[C@@H]1CN1CCCCCCC1	1 µg/mL (≈ 0.978 µM)	4 µg/mL (≈ 3.91 µM)	16 µg/mL (≈ 15.7 µM)	16 µg/mL (≈ 15.7 µM)
